Assay results published in ChEMBL document CHEMBL5236587, “Discovery of oxazoline enhancers of cellular progranulin release” (Bioorg Med Chem Lett, 2023).

Columns and labels:
[1] = Induction of progranulin secretion in mouse BV-2 cells; format: functional, cell-based
[2] = molecular target: Voltage-gated inwardly rectifying potassium channel KCNH2 (Homo sapiens, UniProt Q12809); experiment: Inhibition of human ERG; format: toxicity
[3] = molecular target: Muscarinic acetylcholine receptor M3 (Homo sapiens, UniProt P20309); experiment: Antagonist activity at M3 receptor (unknown origin)
Muscarinic acetylcholine receptor M3, sequence (P20309 whole entry): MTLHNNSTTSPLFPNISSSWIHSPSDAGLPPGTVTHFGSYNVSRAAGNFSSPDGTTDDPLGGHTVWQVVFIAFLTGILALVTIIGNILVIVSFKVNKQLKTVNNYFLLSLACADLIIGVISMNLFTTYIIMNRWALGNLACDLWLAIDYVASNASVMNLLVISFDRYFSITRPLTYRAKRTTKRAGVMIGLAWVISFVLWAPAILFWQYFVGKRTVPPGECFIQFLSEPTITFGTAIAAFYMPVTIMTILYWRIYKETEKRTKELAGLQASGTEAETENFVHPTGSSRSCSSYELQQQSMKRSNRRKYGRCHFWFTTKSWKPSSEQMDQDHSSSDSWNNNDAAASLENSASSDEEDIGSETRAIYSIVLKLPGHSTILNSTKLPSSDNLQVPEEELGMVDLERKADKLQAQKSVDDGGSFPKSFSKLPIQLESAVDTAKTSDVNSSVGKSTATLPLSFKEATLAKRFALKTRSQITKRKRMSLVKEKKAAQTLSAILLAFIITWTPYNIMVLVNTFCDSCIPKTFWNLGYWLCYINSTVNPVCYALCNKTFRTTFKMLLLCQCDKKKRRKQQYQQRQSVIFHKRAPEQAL

Voltage-gated inwardly rectifying potassium channel KCNH2, sequence (Q12809 whole entry): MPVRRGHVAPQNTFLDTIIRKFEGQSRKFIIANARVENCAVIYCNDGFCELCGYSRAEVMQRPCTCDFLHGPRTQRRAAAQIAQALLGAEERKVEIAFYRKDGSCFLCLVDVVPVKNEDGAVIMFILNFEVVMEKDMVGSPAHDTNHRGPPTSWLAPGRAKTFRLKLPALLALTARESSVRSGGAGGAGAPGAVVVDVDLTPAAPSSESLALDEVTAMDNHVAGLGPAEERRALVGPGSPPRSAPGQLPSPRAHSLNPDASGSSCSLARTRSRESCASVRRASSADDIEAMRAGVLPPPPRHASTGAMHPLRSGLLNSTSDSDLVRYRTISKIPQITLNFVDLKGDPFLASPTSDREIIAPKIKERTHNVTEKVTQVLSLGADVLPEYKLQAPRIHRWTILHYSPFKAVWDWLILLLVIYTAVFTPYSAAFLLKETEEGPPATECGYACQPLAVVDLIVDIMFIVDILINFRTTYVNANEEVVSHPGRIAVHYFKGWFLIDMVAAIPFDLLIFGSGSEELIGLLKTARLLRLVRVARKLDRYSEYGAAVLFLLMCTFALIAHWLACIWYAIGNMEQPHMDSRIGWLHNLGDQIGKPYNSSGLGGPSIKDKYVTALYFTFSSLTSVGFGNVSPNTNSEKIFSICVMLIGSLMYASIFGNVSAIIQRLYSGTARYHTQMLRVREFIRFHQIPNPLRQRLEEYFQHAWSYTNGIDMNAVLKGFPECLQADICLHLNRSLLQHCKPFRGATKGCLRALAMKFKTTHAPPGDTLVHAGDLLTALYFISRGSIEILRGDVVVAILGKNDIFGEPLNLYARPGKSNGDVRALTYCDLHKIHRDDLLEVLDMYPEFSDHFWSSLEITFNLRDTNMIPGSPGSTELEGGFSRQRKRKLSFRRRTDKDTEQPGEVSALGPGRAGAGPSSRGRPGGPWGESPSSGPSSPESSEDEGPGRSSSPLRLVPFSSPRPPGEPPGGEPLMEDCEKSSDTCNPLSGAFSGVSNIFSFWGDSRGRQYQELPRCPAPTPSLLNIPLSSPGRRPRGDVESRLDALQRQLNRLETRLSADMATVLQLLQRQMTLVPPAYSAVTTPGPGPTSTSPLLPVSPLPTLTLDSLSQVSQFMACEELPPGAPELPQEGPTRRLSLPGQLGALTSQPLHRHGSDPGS

SMILES	EC50 [1] [nM]	IC50 [2] [nM]	EC50 [3] [nM]
O=C(O[C@H]1CN2CCC1CC2)N1CCc2ccccc2[C@@H]1c1ccc(F)cc1	257	340	17000
O=C(O[C@H]1CN2CCC1CC2)N1CCc2ccccc2[C@@H]1c1ccccc1 [SOLIFENACIN]	1300	–	24
